The supplement of paper PMC10307832

How the values were obtained:
Assay in all cases: relative viability (nuclei count vs DMSO), 5 days (fraction); higher = more cells survive
[1] = compound: C1CCC(CC1)N(CCNCCC2=C3C(=C(C=C2)O)NC(=O)CO3)C(=O)CCNCCC4=CC(=C(C=C4)Cl)Cl [AZ505] + C[C@]1(O)C[C@@H](c2nc(-c3ccc4ccc(-c5ccccc5)nc4c3)c3c(N)nccn32)C1 [Linsitinib] (partner 1 µM)
Summary of the method: (§1)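 Relative viability divides the nuclei count in treated wells by that in vehicle wells. Lung cancer cell lines were seeded in 1536-well plates, dosed by pin tool the next day, and fixed and stained after 5 days in one step with final 0.05% Triton X-100, 1% formaldehyde and 1 ug/ml Hoechst. Dosing was a single drug or a fixed anchor-drug dose plus five library-drug doses (not always all listed) in √10 steps, and values are medians of duplicate plates imaged at 4×.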

[2] = compound: C1CCC(CC1)N(CCNCCC2=C3C(=C(C=C2)O)NC(=O)CO3)C(=O)CCNCCC4=CC(=C(C=C4)Cl)Cl [AZ505] + N=C(N)NC(=N)NCCc1ccccc1 [Phenformin] (partner 250 µM)
Summary of the method: as §1

[3] = compound: C1CCC(CC1)N(CCNCCC2=C3C(=C(C=C2)O)NC(=O)CO3)C(=O)CCNCCC4=CC(=C(C=C4)Cl)Cl [AZ505] + COc1cccc2cc(-c3nc([C@H]4CC[C@H](C(=O)O)CC4)n4ncnc(N)c34)[nH]c12 [OSI-027] (partner 0.5 µM)
Summary of the method: as §1

[4] = compound: Cn1c(=O)n(-c2ccc(C(C)(C)C#N)cc2)c2c3cc(-c4cnc5ccccc5c4)ccc3ncc21 [Dactolisib] + CCNC(=O)c1noc(-c2cc(C(C)C)c(O)cc2O)c1-c1ccc(CN2CCOCC2)cc1 [Luminespib] (partner 0.01 µM)
Summary of the method: as §1

Cell Line | relative viability ([1]; first compound 0.08 µM) | relative viability ([1]; first compound 0.253 µM) | relative viability ([1]; first compound 0.8 µM) | relative viability ([1]; first compound 2.53 µM) | relative viability ([1]; first compound 8 µM) | relative viability ([2]; first compound 0.08 µM) | relative viability ([2]; first compound 0.253 µM) | relative viability ([2]; first compound 0.8 µM) | relative viability ([2]; first compound 2.53 µM) | relative viability ([2]; first compound 8 µM) | relative viability ([3]; first compound 0.08 µM) | relative viability ([3]; first compound 0.253 µM) | relative viability ([3]; first compound 0.8 µM) | relative viability ([3]; first compound 2.53 µM) | relative viability ([3]; first compound 8 µM) | relative viability ([4]; first compound 0.002 µM) | relative viability ([4]; first compound 0.006325 µM) | relative viability ([4]; first compound 0.02 µM) | relative viability ([4]; first compound 0.06325 µM) | relative viability ([4]; first compound 0.2 µM)
Calu-6 | 0.872 | 0.929 | 0.851 | 0.92 | 0.956 |  |  |  |  |  |  |  |  |  |  |  |  |  |  | 
HCC-366 | 0.534 | 0.552 | 0.672 | 0.599 | 0.678 | 0.577 | 0.632 | 0.572 | 0.56 | 0.582 | 0.817 | 0.635 | 0.948 | 0.764 | 0.924 |  |  |  |  | 
NCI-H1648 |  |  |  |  |  |  |  |  |  |  | 0.282 | 0.272 | 0.295 | 0.305 | 0.267 |  |  |  |  | 
EBC-1 | 0.87 | 0.833 | 1.01 | 0.841 | 0.896 |  |  |  |  |  |  |  |  |  |  |  |  |  |  | 
NCI-H1299 | 0.913 | 0.942 | 0.965 | 0.903 | 0.922 |  |  |  |  |  |  |  |  |  |  |  |  |  |  | 
NCI-H2342 |  |  |  |  |  | 0.573 | 0.559 | 0.733 | 0.697 | 0.677 | 0.604 | 0.712 | 0.765 | 0.587 | 0.671 | 0.677 | 0.634 | 0.653 | 0.495 | 0.437
IA-LM | 0.497 | 0.572 | 0.701 | 0.597 | 0.643 |  |  |  |  |  |  |  |  |  |  |  |  |  |  | 
NCI-H2170 |  |  |  |  |  | 0.396 | 0.42 | 0.397 | 0.405 | 0.421 | 0.743 | 0.677 | 0.684 | 0.738 | 0.793 | 0.512 | 0.805 | 0.722 | 0.435 | 0.195
